# Measurements reported in patent US11964949B2, “Substituted phenyloxazolidinones for antimicrobial therapy” (priority 2015, dated 2024).
# Read-outs that look alike come from different tables or passages of the source.
# Tests used:
# [1] = system: mitochondrial protein synthesis (MPS) in H9C2 cells; experiment: In vitro assay for MPS inhibition (COX-1 / SDH-A ELISA in H9C2 cells); type: cell-based, rat; conditions: Rattus norvegicus, read-out: IC50 (μM) MPS inhibition
# [2] = system: Mycobacterium tuberculosis H37Rv; experiment: In vitro assay for antimicrobial susceptibility (microplate Alamar blue, MIC); type: cell-based; conditions: Mycobacterium tuberculosis, read-out: MIC (μg/mL) against H37Rv
# [3] = 120 h, H9C2 cells, 5 days incubation
# [4] = M. tuberculosis H37Rv, 7H9 broth, Alamar blue
SMILES,"IC50 [1, 3] [µM]","MIC [2, 4] [µg/mL]","IC50 ([1]; H9c2, 120 h) [µM]",MIC ([2]; H37RV) [µg/mL]
"O=C1O[C@@H](Cn2cncn2)CN1c1ccc(N2CCC[S+]([O-])CC2)c(F)c1 (stereo partly drawn) [OTB-140, (5R)-5-((1H-1,2,4-Triazol-1-yl)methyl)-3-(3-fluoro-4-(1-oxido-1,4-thiazepan-4-yl)phenyl)oxazolidin-2-one]",> 100,3.69,–,–
"CC(=O)NC[C@H]1CN(c2ccc(N3CC4(COC4)C3)c(F)c2)C(=O)O1 [OTB-202, (S)—N-((3-(3-Fluoro-4-(2-oxa-6-azaspiro[3.3]heptan-6-yl)phenyl)-2-oxo-oxazolidin-5-yl)methyl)acetamide]",17 to 29,0.6 to 1.2,–,–
"CC(=O)NC[C@H]1CN(c2ccc(N3C4CSCC3C4)c(F)c2)C(=O)O1 [OTB-227, N-(((5S)-3-(4-(3-Thia-6-azabicyclo[3.1.1]heptan-6-yl)-3-fluorophenyl)-2-oxo-oxazolidin-5-yl)methyl)acetamide]",–,–,15.2,0.889
"O=C1O[C@@H](CO)CN1c1cc(F)c(N2CC3(COC3)C2)c(F)c1 [OTB-229, (R)-3-(3,5-Difluoro-4-(2-oxa-6-azaspiro[3.3]heptan-6-yl)phenyl)-5-(hydroxymethyl)oxazolidin-2-one]",> 100,1.9 to 7.4,–,–
"CC(=O)NC[C@H]1CN(c2cc(F)c(N3CC4(COC4)C3)c(F)c2)C(=O)O1 [OTB-230, (S)—N-((3-(3,5-Difluoro-4-(2-oxa-6-azaspiro[3.3]heptan-6-yl)phenyl)-2-oxo-oxazolidin-5-yl)methyl)acetamide]",13,0.2,–,–
"COC(=O)NC[C@H]1CN(c2cc(F)c(N3CC4(COC4)C3)c(F)c2)C(=O)O1 [OTB-231, Methyl (S)-((3-(3,5-difluoro-4-(2-oxa-6-azaspiro[3.3]heptan-6-yl)phenyl)-2-oxo-oxazolidin-5-yl)methyl)carbamate]",37 to 63,0.24 to 0.7,–,–
"CS(=O)(=O)NC[C@H]1CN(c2cc(F)c(N3CC4(COC4)C3)c(F)c2)C(=O)O1 [OTB-232, (R)—N-((3-(3,5-Difluoro-4-(2-oxa-6-azaspiro[3.3]heptan-6-yl)phenyl)-2-oxo-oxazolidin-5-yl)methyl)methanesulfonamide]",> 100,1.5 to 4,–,–
"O=C(NC[C@H]1CN(c2cc(F)c(N3CC4(COC4)C3)c(F)c2)C(=O)O1)C1CC1 [OTB-233, (S)—N-((3-(3,5-Difluoro-4-(2-oxa-6-azaspiro[3.3]heptan-6-yl)phenyl)-2-oxo-oxazolidin-5-yl)methyl)cyclopropanecarboxamide]",8.4 to 50,0.36 to 1,–,–
"COC(=O)NC[C@H]1CN(c2ccc(N3[C@@H]4CC[C@H]3CSC4)c(F)c2)C(=O)O1 [OTB-237, Methyl (((S)-3-(4-((1R,5S)-3-thia-8-azabicyclo[3.2.1]octan-8-yl)-3-fluorophenyl)-2-Oxo-oxazolidin-5-yl)methyl)carbamate]",–,–,15 to 23,0.03 to 0.11
"O=C(NC[C@H]1CN(c2ccc(N3CC4(COC4)C3)c(F)c2)C(=O)O1)C1CC1 [OTB-238, (S)—N-((3-(3-Fluoro-4-(2-oxa-6-azaspiro[3.3]heptan-6-yl)phenyl)-2-oxo-oxazolidin-5-yl)methyl)cyclopropanecarboxamide]",20,2 to 4,–,–
"O=C(NC[C@H]1CN(c2ccc(N3CC4(COC4)C3)c(F)c2)C(=O)O1)C1CCC1 [OTB-239, (S)—N-((3-(3-Fluoro-4-(2-oxa-6-azaspiro[3.3]heptan-6-yl)phenyl)-2-oxo-oxazolidin-5-yl)methyl)cyclobutanecarboxamide]",19 to 67,2.1 to 3.8,–,–
"O=C(NC[C@H]1CN(c2cc(F)c(N3CC4(COC4)C3)c(F)c2)C(=O)O1)C1CCC1 [OTB-240, (S)—N-((3-(3,5-Difluoro-4-(2-oxa-6-azaspiro[3.3]heptan-6-yl)phenyl)-2-oxo-oxazolidin-5-yl)methyl)cyclobutanecarboxamide]",19 to 67,0.24 to 0.6,–,–
"O=C1O[C@@H](Cn2ccnn2)CN1c1ccc(N2CC3(CSC3)C2)c(F)c1 [OTB-241, (R)-5-((1H-1,2,3-Triazol-1-yl)methyl)-3-(3-fluoro-4-(2-thia-6-azaspiro[3.3]heptan-6-yl)phenyl)oxazolidin-2-one]",19.8,0.116,–,–
"COC(=O)NC[C@H]1CN(c2cc(F)c(N3CC4(CSC4)C3)c(F)c2)C(=O)O1 [OTB-242, Methyl (S)-((3-(3,5-difluoro-4-(2-thia-6-azaspiro[3.3]heptan-6-yl)phenyl)-2-oxo-oxazolidin-5-yl)methyl)carbamate]",23 to 71,0.02 to 0.06,–,–
"O=C(NC[C@H]1CN(c2cc(F)c(N3CC4(CSC4)C3)c(F)c2)C(=O)O1)C1CC1 [OTB-243, (S)—N-((3-(3,5-Difluoro-4-(2-thia-6-azaspiro[3.3]heptan-6-yl)phenyl)-2-oxo-oxazolidin-5-yl)methyl)cyclopropanecarboxamide]",14,0.03,–,–
"O=C1O[C@@H](Cn2ccnn2)CN1c1cc(F)c(N2CC3(CSC3)C2)c(F)c1 [OTB-245, (R)-5-((1H-1,2,3-Triazol-1-yl)methyl)-3-(3,5-difluoro-4-(2-thia-6-azaspiro[3.3]heptan-6-yl)phenyl)oxazolidin-2-one]",25 to 35,0.03 to 0.5,–,–
O=C1O[C@@H](Cn2ccnn2)CN1c1ccc(N2CC3(C2)C[S+]([O-])C3)c(F)c1 [OTB-247],10,1.2 to 1.4,–,–
O=C(NC[C@H]1CN(c2cc(F)c(N3CC4(C3)C[S+]([O-])C4)c(F)c2)C(=O)O1)C1CCC1 [OTB-251],24,0.9,–,–
O=C(NC[C@H]1CN(c2cc(F)c(N3CC4(C3)C[S+]([O-])C4)c(F)c2)C(=O)O1)C1CC1 [OTB-252],52,0.7,–,–
COC(=O)NC[C@H]1CN(c2cc(F)c(N3CC4(C3)C[S+]([O-])C4)c(F)c2)C(=O)O1 [OTB-253],10,0.7,–,–

SMILES,"IC50 [1, 3] [µM]","MIC [2, 4] [µg/mL]","IC50 ([1]; H9c2, 120 h) [µM]",MIC ([2]; H37RV) [µg/mL]
O=C(NC[C@H]1CN(c2ccc(N3CC4(C3)C[S+]([O-])C4)c(F)c2)C(=O)O1)C1CC1 [OTB-255],10,1.9,–,–
COC(=O)NC[C@H]1CN(c2ccc(N3CC4(C3)C[S+]([O-])C4)c(F)c2)C(=O)O1 [OTB-256],46,4,–,–
"O=C1O[C@@H](CO)CN1c1ccc(N2CC3(CSC3)C2)c(F)c1 [OTB-260, (R)-3-(3-Fluoro-4-(2-thia-6-azaspiro[3.3]heptan-6-yl)phenyl)-5-(hydroxymethyl)oxazolidin-2-one]",30,1.49,–,–
CS(=O)(=O)NC[C@H]1CN(c2ccc(N3CC4(CSC4)C3)c(F)c2)C(=O)O1 [OTB-260-2A],> 100,0.82,–,–
CS(=O)(=O)NC[C@H]1CN(c2ccc(N3CC4(C3)C[S+]([O-])C4)c(F)c2)C(=O)O1 [OTB-260-2B],> 100,0.49,–,–
CNC(=O)OC[C@H]1CN(c2ccc(N3CC4(CSC4)C3)c(F)c2)C(=O)O1 [OTB-260-4A],> 100,–,–,0.39
CNC(=O)OC[C@H]1CN(c2ccc(N3CC4(C3)C[S+]([O-])C4)c(F)c2)C(=O)O1 [OTB-260-4B],> 100,–,–,20
O=C1O[C@@H](Cn2nccn2)CN1c1ccc(N2CC3(CSC3)C2)c(F)c1 [OTB-260-5A],> 100,0.44,–,–
O=C1O[C@@H](Cn2nccn2)CN1c1ccc(N2CC3(C2)C[S+]([O-])C3)c(F)c1 [OTB-260-5B],> 100,> 32,–,–
"CC(=O)NC[C@H]1CN(c2ccc(N3CC4(CSC4)C3)c(F)c2)C(=O)O1 [OTB-261, (S)—N-((3-(3-Fluoro-4-(2-thia-6-azaspiro[3.3]heptan-6-yl)phenyl)-2-oxo-oxazolidin-5-yl)methyl)acetamide]",2,0.12,–,–
"CC(=O)NC[C@H]1CN(c2cc(F)c(N3CCCSCC3)c(F)c2)C(=O)O1 [OTB-407, (S)—N-((3-(3,5-Difluoro-4-(1,4-thiazepan-4-yl)phenyl)-2-oxo-oxazolidin-5-yl)methyl)acetamide]",3.08,0.097,–,–
O=C(NC[C@H]1CN(c2cc(F)c(N3CCCSCC3)c(F)c2)C(=O)O1)C1CC1 [OTB-408],3.61,0.342,–,–
O=C(NC[C@H]1CN(c2cc(F)c(N3CCCSCC3)c(F)c2)C(=O)O1)C1CCC1 [OTB-409],8.51,0.477,–,–
"COC(=O)NC[C@H]1CN(c2cc(F)c(N3CCCSCC3)c(F)c2)C(=O)O1 [OTB-410, Methyl (S)-((3-(3,5-difluoro-4-(1,4-thiazepan-4-yl)phenyl)-2-oxo-oxazolidin-5-yl)methyl)carbamate]",> 100,0.125,–,–
"O=C1O[C@@H](Cn2ccnn2)CN1c1cc(F)c(N2CCCSCC2)c(F)c1 [OTB-411, (R)-5-((1H-1,2,3-triazol-1-yl)methyl)-3-(3,5-difluoro-4-(1,4-thiazepan-4-yl)phenyl)oxazolidin-2-one]",8.73,0.124,–,–
"COC(=O)NC[C@H]1CN(c2ccc(N3CCCSCC3)c(F)c2)C(=O)O1 [OTB-412, Methyl (S)-((3-(3-fluoro-4-(1,4-thiazepan-4-yl)phenyl)-2-oxo-oxazolidin-5-yl)methyl) carbamate]",10,0.199,–,–
"O=C(NC[C@H]1CN(c2ccc(N3CCCSCC3)c(F)c2)C(=O)O1)C1CC1 [OTB-413, (S)—N-((3-(3-Fluoro-4-(1,4-thiazepan-4-yl)phenyl)-2-oxo-oxazolidin-5-yl)methyl)cyclopropanecarboxamide]",9.13,0.108,–,–
"CC(=O)NC[C@H]1CN(c2ccc(N3[C@@H]4CC[C@H]3CSC4)c(F)c2)C(=O)O1 [OTB-502, N—(((S)-3-(4-((1R,5S)-3-Thia-8-azabicyclo[3.2.1]octan-8-yl)-3-fluorophenyl)-2-oxooxazolidin-5-yl)methyl)acetamide]",–,–,13.6,0.246
"O=C(NC[C@H]1CN(c2ccc(N3[C@@H]4CC[C@H]3CSC4)c(F)c2)C(=O)O1)C1CC1 [OTB-506, N—(((S)-3-(4-((1R,5S)-3-Thia-8-azabicyclo[3.2.1]octan-8-yl)-3-fluorophenyl)-2-oxo-oxazolidin-5-yl)methyl)cyclopropanecarboxamide]",–,–,8,1
